Where two headings read alike, the source gives them in different places.
Assays:
[1] = molecular target: T1, C. breweri S-linalool synthase (Clarkia breweri, UniProt Q96376); test: S-linalool synthase (LIS) enzyme assay: conversion of [1-3H]-GPP to linalool, hexane/pentane overlay, scintillation counting or radio-GC; format: biochemical; conditions: for efficiency of divalent metal ion as cofactor (in words): Mg2+ substituting for Mn2+; for Rate (substrate specificity, relative to GPP = 100%): putative substrates tested at 12 μM, averages and SE of four replicate determinations; for effect of detergent on enzyme activity: 0.1% w/v (SDS at similar levels); for whether the divalent metal ion supports the enzymatic reaction (Neither ... nor ... support): at 1 to 10 mM, as the chloride salts; for rate of conversion to linalool relative to the rate for GPP: LPP enantiomers tested as alternate substrates; for Specific Activity: by purification step, starting material 10 g excised stigmata
T1 construct: active as monomer; not recombinant
T1 sequence (Q96376 1-870): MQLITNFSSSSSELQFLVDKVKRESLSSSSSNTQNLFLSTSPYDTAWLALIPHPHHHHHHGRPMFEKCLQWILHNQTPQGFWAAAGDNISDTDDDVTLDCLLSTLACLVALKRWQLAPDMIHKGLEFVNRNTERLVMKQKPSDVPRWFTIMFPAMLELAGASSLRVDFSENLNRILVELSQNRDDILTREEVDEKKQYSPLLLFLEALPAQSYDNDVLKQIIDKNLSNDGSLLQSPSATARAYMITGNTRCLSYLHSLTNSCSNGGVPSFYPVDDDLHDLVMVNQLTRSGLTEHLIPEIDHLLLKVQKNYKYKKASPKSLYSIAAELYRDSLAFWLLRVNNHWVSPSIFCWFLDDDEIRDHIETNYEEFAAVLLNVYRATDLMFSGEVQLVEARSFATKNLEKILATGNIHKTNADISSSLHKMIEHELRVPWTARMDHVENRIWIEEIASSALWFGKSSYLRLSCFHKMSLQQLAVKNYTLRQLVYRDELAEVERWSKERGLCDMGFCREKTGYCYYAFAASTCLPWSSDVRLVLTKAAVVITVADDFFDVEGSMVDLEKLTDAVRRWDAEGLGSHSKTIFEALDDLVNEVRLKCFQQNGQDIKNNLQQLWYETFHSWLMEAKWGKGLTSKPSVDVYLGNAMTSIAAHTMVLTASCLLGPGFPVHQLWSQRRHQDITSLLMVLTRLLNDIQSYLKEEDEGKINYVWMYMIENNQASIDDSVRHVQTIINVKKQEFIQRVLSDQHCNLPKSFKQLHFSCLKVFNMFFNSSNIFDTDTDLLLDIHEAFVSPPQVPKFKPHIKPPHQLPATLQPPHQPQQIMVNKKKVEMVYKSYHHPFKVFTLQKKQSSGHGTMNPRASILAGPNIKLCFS
Protocol: The crude extract (100 ml) was loaded onto a DEAE-cellulose (0.7 cm diam.×6 cm) column (Whatman, DE52) that was pre-equilibrated with a solution containing 50 mM BisTris, pH 6.9, 10% glycerol and 10 mM DTT (buffer A) at a flow rate of about 1 ml/min. Following elution of the unadsorbed material, the column was washed with 50 ml of buffer A followed by an additional 20 ml of buffer A containing 150 mM KCl. LIS activity was then eluted with 20 ml of buffer A containing 250 mM KCl. Fractions with the highest LIS activity (about 60% yield, 10 ml), were either pooled and used immediately, or frozen at -20° C. for up to 1 month with less than 20% loss of activity. The DEAE-cellulose purified fractions were diluted 2-fold with ice-cold buffer A, and loaded on a 1 cm diam.×10cm hydroxyapatite column (Bio-Gel HT, Bio-Rad, Richmond, Calif.) installed in a Pharmacia FPLC apparatus, and pre-equilibrated with 100 ml of buffer A, at a flow rate of 0.5 ml/min. After the enzyme was loaded, the column was washed with 20 ml buffer A and then eluted using a linear gradient (100 ml) from 0 to 200 mM Na-phosphate in buffer A. The fractions containing LIS activity, eluting at about 100 mM Na-phosphate, were pooled (10 to 16 ml) and loaded on a pre-packed Pharmacia Mono-Q HR 5/5 FPLC column equilibrated with buffer A. After a 20-ml wash with buffer A, a steep linear gradient from 0 to 100 mM KCl in buffer A (10 ml) was applied, followed by a more gradual linear gradient from 100 to 400 mM KCl in buffer A (100 ml, 0.25 ml/min). The enzyme consistently eluted at about 220 mM KCl. After dialysis to assay conditions, the enzyme at this level of purity was used for characterization.
After incubation, the assay mixture was briefly mixed again to extract non-polar products into the organic layer. An 800-μl aliquot of the hexane phase was placed into a scintillation vial containing 10 ml of a cocktail of 0.4% (w/v) Omnifluor (Du Pont, Boston Mass.) dissolved in 30% (v/v) ethanol in toluene and counted in a Packard TriCarb 460 CD scintillation spectrometer (efficiency for ^3 H=36%) to determine the total monoterpene synthase activity. To examine in detail the products formed, radio-GC was performed as described (Croteau et al., 1990). For this purpose, the 2 ml pentane extract containing the enzymatically formed ^3 H-labeled products was removed, dried by passage through MgSO4, and internal standards were added (10 μg each of linalool and geraniol; nerol was UD also included in initial experiments). The mixture was then concentrated to ~10 μl under a gentle stream of nitrogen, and an aliquot (2-3 μl) was injected into a Gow-Mac 550P radio gas chromatograph fitted with a 0.125 in ×12 ft stainless steel column loaded with AT-1000 (Gas Chrom Q, Alltech), attached to a Packard 894 gas proportional counter. The initial column temperature was 170° C. and, following a 5 min hold, was programmed at 5° C./min to 220° C., using He at a flow rate of 50 ml/min. Control incubations included the omission of enzyme extract, the use of boiled enzyme extract, the omission of substrate, and the omission of divalent cations. All of these controls produced negligible radioactivity in the hexane phase of the enzyme assay mixtures.
The enantiomeric composition of linalool samples was determined on a fused silica capillary column (0.25 mm internal diam.×30 m) coated with a 0.25 μm film of β-cyclodextrin (J & W Scientific, Cyclodex B), operated at an initial temperature of 75° C. for 15 min followed by a rise of 5° C./min to 200° C. H2 at a head pressure of 13.5 psi was used as carrier gas (Alonso et al., 1992).

[2] = molecular target: T2, LIS (linalool synthase) in crude extracts (Clarkia breweri, UniProt Q96376); test: LIS activity assay in crude extracts of open C. breweri flowers; format: biochemical
T2 sequence (Q96376 1-870): T1 sequence (Q96376 1-870)
Protocol: LIS activity was assayed by combining crude extract with ^3 H-GPP (or other substrates) in a buffer containing co-factors. LIS activity was monitored by counting the radioactive linalool extracted from the assay buffer with hexane (GPP is not soluble in hexane) in a scintillation counter. Radio-GC analyses (Croteau et al., 1990) were also undertaken because GPP could be enzymatically hydrolyzed by non-specific phosphatases to produce geraniol, or the tissue might contain other monoterpene synthases, and geraniol or the other monoterpenes that may be produced are also soluble in the organic phase. […] Furthermore, with a special stereo-GC column it was also shown that the product of the reaction is exclusively S-linalool.
A crude protein extract was prepared by macerating flower parts in a microcentrifuge tube in the presence of ice-cold buffer (10 volumes:fresh weight) containing 50 mM BisTris-HCl pH 6.9, 10 mM DTT, 5 mM Na2 S2 O5, 1% (w/v) PVP-40 and 10% (v/v) glycerol. The slurry was centrifuged for 10 min and the supernatant transferred to a new tube. For each time point, extracts of 3 to 5 flowers from 3 different plants were combined. […]
After 1 h, the tube was vortexed again and the amount of the radioactive linalool product, which partitioned into the organic phase, was determined by an LSC of an aliquot. […]

[3] = divalent metal ion required for activity, read-out: Km of divalent metal ion cofactor

[Mn+2] [Mn^2+]
efficiency of divalent metal ion as cofactor (in words) [1]: most efficient | Km [1, 3]: 45 µM

CC(C)=CCC/C(C)=C/COP(=O)(O)OP(=O)(O)O [GPP, Geranyl Pyrophosphate, reference compound]
cofactor / substrate requirement of LIS activity [2]: the only substrate | Km ([1]; calculated from a Lineweaver-Burk plot, purified enzyme, read-out: Km value for GPP): 0.9 µM | Rate (substrate specificity, relative to GPP = 100%) [1]: 100 ± 9.6% | Rate with GPP corresponding to 100% ([1]; substrate at 12 μM, Table 6 footnote b): 22. 2 pkat/mg protein

CCCCCCCCCCCCOS(=O)(=O)[O-].[Na+] [sodium dodecyl sulfate, reference compound]
effect of detergent on enzyme activity [1]: complete loss of activity

[Ca+2] [Ca^2+]
whether the divalent metal ion supports the enzymatic reaction (Neither ... nor ... support) [1]: Neither

Triton-X-100 [reference compound]
effect of detergent on enzyme activity [1]: no effect on enzyme activity

[Mg+2] [Mg^2+]
efficiency of divalent metal ion as cofactor (in words) [1]: half the rate | Km [1, 3]: 330 µM

[Co+2] [Co^2+]
whether the divalent metal ion supports the enzymatic reaction (Neither ... nor ... support) [1]: Neither

[3H]C=C[C@@](C)(CCC=C(C)C)OP(=O)(O)OP(=O)(O)O [3R-[1-^3 H]Linalyl pyrophosphate, reference compound]
rate of conversion to linalool relative to the rate for GPP [1]: essentially not converted to linalool | Rate (substrate specificity, relative to GPP = 100%) [1]: 0.6 ± 0.6%

[3H]C=C[C@](C)(CCC=C(C)C)OP(=O)(O)OP(=O)(O)O [3S-[1-^3 H]Linalyl pyrophosphate, reference compound]
rate of conversion to linalool relative to the rate for GPP [1]: 15% | Rate (substrate specificity, relative to GPP = 100%) [1]: 15.1 ± 6.0%

[Cu+2] [Cu^2+]
whether the divalent metal ion supports the enzymatic reaction (Neither ... nor ... support) [1]: Neither

[Zn+2] [Zn^2+]
whether the divalent metal ion supports the enzymatic reaction (Neither ... nor ... support) [1]: Neither

Hydroxyapatite
Specific Activity [1]: 44.1 pkat mg^-1 | specific activity of preparation loaded on Superdex 75 ([1]; hydroxyapatite-purified enzyme): 44.1 pkat/mg protein

B1: LIS: S-linalool synthase purified from stigmata of C. breweri (Mono Q purified enzyme used for characterization), SEQ ID NO:2 (protein)
chain: MQLITNFSSSSSELQFLVDKVKRESLSSSSSNTQNLFLSTSPYDTAWLALIPHPHHHHHHGRPMFEKCLQWILHNQTPQGFWAAAGDNISDTDDDVTLDCLLSTLACLVALKRWQLAPDMIHKGLEFVNRNTERLVMKQKPSDVPRWFTIMFPAMLELAGASSLRVDFSENLNRILVELSQNRDDILTREEVDEKKQYSPLLLFLEALPAQSYDNDVLKQIIDKNLSNDGSLLQSPSATARAYMITGNTRCLSYLHSLTNSCSNGGVPSFYPVDDDLHDLVMVNQLTRSGLTEHLIPEIDHLLLKVQKNYKYKKHHQNHCIALLRNYTGFISIFGCFESIITGYHHQFFCWFLDDDEIRDHIETNYEEFAAVLLNVYRATDLMFSGEVQLVEARSFATKNLEKILATGNIHKTNADISSSLHKMIEHELRVPWTARMDHVENRIWIEEIASSALWFGKSSILRLSCFHKMSLQQLAVKNYTLRQLVYRDELAEVERWSKERGLCDMGFCREKTGYCYYAFAASTCLPWSSDVRLVLTKAAVVITVADDFFDVEGSMVDLEKLTDAVRRWDAEGLGSHSKTIFEALDDLVNEVRLKCFQQNGQDIKNNLQQLWYETFHSWLMEAKWGKGLTSKPSVDVYLGNAMTSIAAHTMVLTASCLLGPGFPVHQLWSQRRHQDITSLLMVLTRLLNDIQSYLKEEDEGKINYVWMYMIENNQASIDDSVRHVQTIINVKKQEFIQRVLSDQHCNLPKSFKQLHFSCLKVFNMFFNSSNIFDTDTDLLLDIHEAFVSPPQVPKFKPHIKPPHQLPATLQPPHQPQQIMVNKKKVEMVYKSYHHPFKVFTLQKKQSSGHGTMNPRASILAGPNIKLCFS
pH optimum ([1]; broad optimum): 7.4 | Specific Activity [1]: 395 pkat mg^-1 | stability to vigorous vortexing with non-polar organic solvents ([1]; hexane and pentane): very stable | loss of activity in the absence of DTT ([1]; over 2 h at 4° C.): > 95% | rate at pH 6.4 and 8.4 relative to the optimal ([1]; pH 6.4 and 8.4): ~ 80% | turnover number ([1]; under saturating conditions): 31.6 s⁻¹

Reference: patent US5849526A, “Use of linalool synthase in genetic engineering of scent production” (The Regents of the University of Michigan, priority 1996, dated 1998)
